Laboratory results published in patent US12049483B2, “Selective and noncovalent inhibitors of oncogenic RAS mutants” (New York University, priority 2020, dated 2024).
Peptide text beside a SMILES is read from it. * marks the point of attachment. Cbz = O=C(OCc1ccccc1)*

Columns and labels:
[1] = test system: ERK activation (pERK); test: ERK activation in dox-inducible monobody-expressing cell lines; assay type: cell-based; settings: H358; after 24 and 48 hours; dox-induced expression or ARS1620 treatment
Description: Cell signaling assay and quantification of immunoblots. Cells were lysed in RIPA buffer (50 mM Tris-Cl pH 8, 150 mM NaCl, 5 mM EDTA pH8, 0.1% SDS, 1% NP40) supplemented with protease inhibitors (Roche; 5892991001) and phosphatase inhibitors (54 mM β-glycerophosphate, 10 mM NaF, 1 mM sodium vanadate) for 15 minutes on ice, and centrifuged at 15,000 g for 15 minutes. The supernatant was collected and measured for total protein amount using BCA assay (Thermo Scientific; 23227). Lysate (7-20 μg per well) was loaded onto a pre-cast SDS gel (BioRad; 456-1096) followed by electrophoresis. The proteins were then transferred from the gel to a low fluorescence background PVDF membrane (Millipore; IPFL00010) or regular PVDF membrane (Millipore; ISEQ00010) depending on whether fluorescence or chemiluminescence detection was performed. Phospho-ERK was detected using a rabbit anti-pERK antibody (Cell Signaling; 9101S) and total ERK was detected using a rabbit anti-ERK antibody (Cell Signaling; 9102S). Monobody expression was detected using mouse anti-Flag antibody (Sigma; F3165) or anti-HA tag antibody (BioLegend; 901516). Loading control was detected with primary antibody against tubulin-alpha (Thermo Scientific, 62204) or against cytochrome oxidase (COX IV) (Li-Cor, 926-42214). The total RAS level was detected using a pan-RAS antibody (SCBT, sc-166691). The KRAS level was determined using a KRAS-specific antibody (Sigma, WH0003845M1). For fluorescence detection of immunoblots, the membranes were imaged with a Licor Odyssey Clx imager (Li-Cor Bioscience) using IRDye anti-Rabbit 800CW and anti-Mouse 680LT (Li-Cor Bioscience, 926-32211 and 926-68020, respectively) as secondary antibodies. […] Band intensities of western blot were analyzed with Image Studio Lite version 5.2 (Li-Cor Bioscience). To quantify protein abundance in the degradation experiment, the intensities of pERK, RAS, KRAS, and Flag/HA tag bands were first normalized against the loading control of the perspective blot, which were either tubulin-α, COX IV or total ERK, followed by subsequent normalization to the zero time point. […]

[2] = target: T1, KRAS(G12C) (Homo sapiens, UniProt P01116, G12C); test: Yeast display binding titration, KRAS(G12C); design: KRAS4B residues 1-174 containing G12C, G12V, G12D, G13D, Q61L, WT; His6 (N, cleaved yes); Avi-tag (N, cleaved yes); made in house; host or cells: E. coli BL21(DE3); settings: ARS1620 added during nucleotide exchange
Description: Nucleotide exchange of RAS. Purified RAS proteins used in binding experiment and crystallization were prepared by diluting stock protein (typically containing 20-250 μM RAS) 25 times with 20 mM Tris-Cl buffer pH 7.5 containing 5 mM EDTA, 0.1 mM DTT and 1 mM final concentration of a nucleotide (GDP or GTPγS). Samples were incubated at 30° C. for 30 minutes. MgCl2 was then added to the sample at a final concentration of 20 mM and the solution was further incubated on ice for at least 5 minutes prior to use.
(§1) Monobody development. General procedures for the development of monobodies against purified protein targets have been described previously. After four rounds of phage display library selection using biotinylated KRAS(G12C) at concentrations of 100 nM, 100 nM, 50 nM and 50 nM, the genes encoding monobodies from the enriched phage pool were transferred to a yeast display vector, which was used to construct yeast-display libraries. The yeast display libraries were sorted using a Bio-Rad S3e fluorescence-activated cell sorter or a […] II cell sorter (BD Biosciences). […] Single clones were then screened for selective binding to RAS mutants. The expression of monobodies on the surface of yeast cells were detected using mouse anti-VS and anti-mouse IgG-FITC conjugate. Target binding was detected with neutravidin Dylight650. Yeast cells were analyzed using an iQue flow cytometer (Sartorius). […]
Target sequence in this assay (P01116 1-174 isoform P01116-2 G12C): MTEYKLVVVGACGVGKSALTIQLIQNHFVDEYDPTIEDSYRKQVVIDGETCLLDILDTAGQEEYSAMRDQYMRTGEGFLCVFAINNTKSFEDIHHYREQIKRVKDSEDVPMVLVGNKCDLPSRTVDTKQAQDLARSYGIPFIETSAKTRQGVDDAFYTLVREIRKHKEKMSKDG

[3] = target: T1, KRAS(G12C); test: Degradation of KRAS in RASless MEFs by VHL-monobody fusions; assay type: cell-based, mouse; design: expressed in transfected cells; host or cells: RASless mouse embryonic fibroblasts; settings: MLN4924 1 μM or MG132 5 μM for 24 hours
Description: as §1
Target sequence in this assay (P01116 1-188 isoform P01116-2 G12C): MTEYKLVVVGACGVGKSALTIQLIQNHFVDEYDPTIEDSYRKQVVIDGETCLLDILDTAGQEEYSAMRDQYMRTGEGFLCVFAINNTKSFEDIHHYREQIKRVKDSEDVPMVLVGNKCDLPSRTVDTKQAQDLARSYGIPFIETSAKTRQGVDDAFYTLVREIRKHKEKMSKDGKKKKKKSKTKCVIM
Cell signaling assay and quantification of immunoblots. […] The supernatant was collected and measured for total protein amount using BCA assay (Thermo Scientific; 23227). […] The proteins were then transferred from the gel to a low fluorescence background PVDF membrane (Millipore; IPFL00010) or regular PVDF membrane (Millipore; ISEQ00010) depending on whether fluorescence or chemiluminescence detection was performed. […] The total RAS level was detected using a pan-RAS antibody (SCBT, sc-166691). […]

| binding of 12VC1 to KRAS(G12C) after reaction with ARS1620 [2] | Compound | ERK activation in H358 cells [1] | effect on RAS degradation by VHL-monobody fusion [3] |
| --- | --- | --- | --- |
| abolished | C=CC(=O)N1CCN(c2ncnc3c(F)c(-c4c(O)cccc4F)c(Cl)cc23)CC1 [ARS1620] | effectively inhibited | – |
| – | CC(C)C[C@@H](C=O)NC(=O)[C@H](CC(C)C)NC(=O)[C@H](CC(C)C)NC(=O)OCc1ccccc1 [MG132] (Cbz-Leu-Leu-Leu-aldehyde) | – | rescued |
| – | NS(=O)(=O)OC[C@@H]1C[C@@H](n2ccc3c(N[C@H]4CCc5ccccc54)ncnc32)C[C@@H]1O [MLN4924] | – | rescued |
